pKi: −log10 of the molar value.
What was measured:
[1] = molecular target: Metabotropic glutamate receptor 5 (Homo sapiens, UniProt P41594); experiment: Binding affinity to mGluR5 receptor expressed in BHK cells; assay type: cell-based
[2] = Displacement of [3H]kainic acid from rat KA receptor in rat brain membranes
[3] = Displacement of [3H]AMPA from rat AMPA receptor in rat brain membranes
Glutamate NMDA receptor = experiment: Displacement of [3H]CGP-39653 from rat NMDA receptor in rat brain membranes
[4] = molecular target: Metabotropic glutamate receptor 2 (Homo sapiens, UniProt Q14416); experiment: Displacement of [3H]LY341495 from mGluR2 receptor expressed in BHK cells; assay type: cell-based
Metabotropic glutamate receptor 2, sequence (Q14416 whole entry): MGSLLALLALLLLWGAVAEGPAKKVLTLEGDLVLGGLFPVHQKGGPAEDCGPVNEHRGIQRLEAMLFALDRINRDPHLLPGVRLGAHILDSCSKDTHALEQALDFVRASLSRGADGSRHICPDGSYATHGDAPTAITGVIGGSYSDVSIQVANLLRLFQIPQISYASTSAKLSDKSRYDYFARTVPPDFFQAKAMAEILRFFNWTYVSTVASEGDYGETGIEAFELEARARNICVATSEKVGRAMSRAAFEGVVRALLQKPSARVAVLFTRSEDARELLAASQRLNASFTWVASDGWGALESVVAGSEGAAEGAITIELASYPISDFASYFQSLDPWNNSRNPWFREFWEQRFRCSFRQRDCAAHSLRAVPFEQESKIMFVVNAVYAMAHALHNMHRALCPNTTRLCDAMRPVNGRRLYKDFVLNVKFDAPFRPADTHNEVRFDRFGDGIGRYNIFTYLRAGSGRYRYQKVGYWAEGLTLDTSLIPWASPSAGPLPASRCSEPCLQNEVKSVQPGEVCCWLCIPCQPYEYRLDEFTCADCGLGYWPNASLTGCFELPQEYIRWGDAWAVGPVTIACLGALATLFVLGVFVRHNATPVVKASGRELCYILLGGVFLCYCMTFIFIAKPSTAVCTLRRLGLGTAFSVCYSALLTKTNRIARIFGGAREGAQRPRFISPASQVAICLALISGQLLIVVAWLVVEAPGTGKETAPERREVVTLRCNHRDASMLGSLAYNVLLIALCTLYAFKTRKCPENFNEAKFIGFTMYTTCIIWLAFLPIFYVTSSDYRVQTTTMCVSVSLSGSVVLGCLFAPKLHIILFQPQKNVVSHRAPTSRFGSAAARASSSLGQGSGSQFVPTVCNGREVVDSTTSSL

[5] = molecular target: Metabotropic glutamate receptor 4 (Homo sapiens, UniProt Q14833); experiment: Displacement of [3H]LAP4 from mGluR4 receptor expressed in BHK cells; assay type: cell-based
Metabotropic glutamate receptor 4, sequence (Q14833 whole entry): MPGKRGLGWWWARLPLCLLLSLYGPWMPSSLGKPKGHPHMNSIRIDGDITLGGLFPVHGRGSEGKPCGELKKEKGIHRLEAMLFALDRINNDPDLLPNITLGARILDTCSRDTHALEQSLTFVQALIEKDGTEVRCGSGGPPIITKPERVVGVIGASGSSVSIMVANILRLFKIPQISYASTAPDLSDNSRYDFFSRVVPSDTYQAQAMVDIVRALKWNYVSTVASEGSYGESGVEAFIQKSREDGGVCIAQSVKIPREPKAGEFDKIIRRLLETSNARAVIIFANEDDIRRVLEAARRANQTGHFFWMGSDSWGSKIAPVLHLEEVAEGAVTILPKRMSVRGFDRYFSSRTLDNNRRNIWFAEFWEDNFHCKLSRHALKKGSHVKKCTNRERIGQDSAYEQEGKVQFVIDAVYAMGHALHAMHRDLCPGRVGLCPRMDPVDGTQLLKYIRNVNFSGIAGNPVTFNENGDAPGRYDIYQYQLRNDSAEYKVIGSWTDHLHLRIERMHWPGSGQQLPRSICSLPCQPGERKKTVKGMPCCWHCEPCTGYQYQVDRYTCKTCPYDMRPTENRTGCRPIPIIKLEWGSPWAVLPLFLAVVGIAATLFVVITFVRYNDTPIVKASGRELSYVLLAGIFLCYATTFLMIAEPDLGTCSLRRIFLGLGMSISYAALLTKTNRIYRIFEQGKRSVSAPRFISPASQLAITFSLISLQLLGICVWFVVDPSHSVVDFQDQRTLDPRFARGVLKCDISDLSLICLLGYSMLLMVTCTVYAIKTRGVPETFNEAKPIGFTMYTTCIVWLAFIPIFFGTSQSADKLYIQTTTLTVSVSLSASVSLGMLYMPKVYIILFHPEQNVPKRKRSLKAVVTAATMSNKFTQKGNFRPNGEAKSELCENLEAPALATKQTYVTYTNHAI

[6] = molecular target: Metabotropic glutamate receptor 1 (Homo sapiens, UniProt Q13255); experiment: Displacement of [3H]quisqualate from mGluR1 receptor expressed in BHK cells; assay type: cell-based
Metabotropic glutamate receptor 1, sequence (Q13255 whole entry): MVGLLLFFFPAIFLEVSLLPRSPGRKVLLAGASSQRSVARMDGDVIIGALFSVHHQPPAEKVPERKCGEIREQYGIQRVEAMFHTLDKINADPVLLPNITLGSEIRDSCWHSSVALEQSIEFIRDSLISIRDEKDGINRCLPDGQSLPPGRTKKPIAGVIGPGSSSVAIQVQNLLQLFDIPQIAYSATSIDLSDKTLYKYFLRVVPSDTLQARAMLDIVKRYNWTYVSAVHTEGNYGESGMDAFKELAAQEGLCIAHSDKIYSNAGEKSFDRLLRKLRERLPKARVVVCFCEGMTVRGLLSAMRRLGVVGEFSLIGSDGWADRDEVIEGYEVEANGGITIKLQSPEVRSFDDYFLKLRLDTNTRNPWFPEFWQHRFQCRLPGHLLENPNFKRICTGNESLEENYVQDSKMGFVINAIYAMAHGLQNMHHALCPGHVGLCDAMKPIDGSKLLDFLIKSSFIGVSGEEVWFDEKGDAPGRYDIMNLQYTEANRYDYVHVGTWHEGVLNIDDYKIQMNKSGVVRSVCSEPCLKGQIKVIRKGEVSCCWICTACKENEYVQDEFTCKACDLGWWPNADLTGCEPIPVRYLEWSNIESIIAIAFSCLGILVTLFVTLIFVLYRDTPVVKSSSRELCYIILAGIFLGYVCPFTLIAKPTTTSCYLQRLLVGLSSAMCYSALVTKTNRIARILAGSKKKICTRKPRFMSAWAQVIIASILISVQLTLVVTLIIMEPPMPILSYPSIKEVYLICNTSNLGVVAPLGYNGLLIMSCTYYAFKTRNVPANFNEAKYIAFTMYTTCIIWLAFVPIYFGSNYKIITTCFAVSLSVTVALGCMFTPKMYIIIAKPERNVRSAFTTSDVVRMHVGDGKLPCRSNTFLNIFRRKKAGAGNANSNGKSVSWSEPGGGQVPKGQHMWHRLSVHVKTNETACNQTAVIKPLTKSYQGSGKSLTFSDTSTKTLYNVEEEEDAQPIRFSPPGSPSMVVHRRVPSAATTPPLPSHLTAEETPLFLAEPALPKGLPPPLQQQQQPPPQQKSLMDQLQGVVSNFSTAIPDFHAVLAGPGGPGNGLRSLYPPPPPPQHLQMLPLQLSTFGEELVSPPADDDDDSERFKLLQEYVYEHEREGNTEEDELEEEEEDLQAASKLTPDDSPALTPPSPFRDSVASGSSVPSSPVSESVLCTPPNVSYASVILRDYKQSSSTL

Metabotropic glutamate receptor 5, sequence (P41594 whole entry): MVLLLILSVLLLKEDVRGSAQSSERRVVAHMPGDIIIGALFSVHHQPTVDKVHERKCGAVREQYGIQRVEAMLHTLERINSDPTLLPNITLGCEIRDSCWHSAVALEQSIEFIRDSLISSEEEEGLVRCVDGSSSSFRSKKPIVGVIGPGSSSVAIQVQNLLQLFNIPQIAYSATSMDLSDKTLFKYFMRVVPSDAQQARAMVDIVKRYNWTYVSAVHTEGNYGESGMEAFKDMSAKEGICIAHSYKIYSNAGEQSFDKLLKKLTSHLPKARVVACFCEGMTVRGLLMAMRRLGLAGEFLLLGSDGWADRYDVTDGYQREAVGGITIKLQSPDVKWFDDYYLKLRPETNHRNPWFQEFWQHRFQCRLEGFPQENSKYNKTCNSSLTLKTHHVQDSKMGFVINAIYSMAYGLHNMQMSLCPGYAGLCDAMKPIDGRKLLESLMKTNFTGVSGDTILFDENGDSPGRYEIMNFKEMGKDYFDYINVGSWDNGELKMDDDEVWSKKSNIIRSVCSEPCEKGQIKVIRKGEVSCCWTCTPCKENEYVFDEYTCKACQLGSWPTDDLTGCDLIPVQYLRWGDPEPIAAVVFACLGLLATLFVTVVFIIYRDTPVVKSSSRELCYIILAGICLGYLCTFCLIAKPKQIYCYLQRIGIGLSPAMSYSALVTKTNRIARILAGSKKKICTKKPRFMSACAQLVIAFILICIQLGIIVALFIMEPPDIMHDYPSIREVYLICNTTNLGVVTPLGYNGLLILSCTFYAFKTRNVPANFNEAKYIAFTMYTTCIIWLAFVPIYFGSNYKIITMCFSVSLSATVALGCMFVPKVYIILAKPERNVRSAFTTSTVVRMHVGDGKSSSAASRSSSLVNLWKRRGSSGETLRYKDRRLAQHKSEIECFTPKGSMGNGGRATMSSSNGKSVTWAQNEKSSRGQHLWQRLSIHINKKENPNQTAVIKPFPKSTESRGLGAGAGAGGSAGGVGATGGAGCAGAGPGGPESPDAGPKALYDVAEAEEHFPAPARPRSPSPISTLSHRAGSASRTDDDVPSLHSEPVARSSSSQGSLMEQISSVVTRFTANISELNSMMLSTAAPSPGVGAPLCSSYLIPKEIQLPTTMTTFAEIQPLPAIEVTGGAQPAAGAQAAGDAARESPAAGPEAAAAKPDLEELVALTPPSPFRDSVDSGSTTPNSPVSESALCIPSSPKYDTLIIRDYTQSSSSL

N[C@@H](C(=O)O)[C@@H]1C[C@H]1S(=O)(=O)O
pKi [1]: 4.17
pKi [2]: 4.15
pKi [3]: 4.14
pKi (Glutamate NMDA receptor): 3.82
pKi [4]: < 3.52
pKi [5]: < 3.52
pKi [6]: 3.60

N[C@@H](C(=O)O)[C@@H]1C[C@@H]1S(=O)(=O)O
pKi [1]: < 3.52
pKi [2]: 4.46
pKi [3]: < 3.52
pKi (Glutamate NMDA receptor): < 3.52
pKi [4]: < 3.52
pKi [5]: < 3.52
pKi [6]: < 3.52

N[C@@H](C(=O)O)[C@H]1C[C@H]1S(=O)(=O)O
pKi [1]: 4.26
pKi [2]: 4.19
pKi [3]: 4.14
pKi (Glutamate NMDA receptor): 4.21
pKi [4]: < 3.52
pKi [5]: < 3.52
pKi [6]: < 3.52

N[C@@H](CCS(=O)(=O)O)C(=O)O
pKi [1]: 4.27
pKi [2]: 5.00
pKi [3]: 5.62
pKi (Glutamate NMDA receptor): 5.57
pKi [4]: < 3.52
pKi [5]: 4.28
pKi [6]: 4.06

N[C@H](C(=O)O)[C@H]1C[C@@H]1S(=O)(=O)O
pKi [1]: 4.31
pKi [2]: < 3.52
pKi [3]: < 3.52
pKi (Glutamate NMDA receptor): < 3.52
pKi [4]: 3.63
pKi [5]: < 3.52
pKi [6]: 4.47

N[C@H](C(=O)O)[C@@H]1C[C@@H]1C(=O)O
pKi (Glutamate NMDA receptor): 8.05

N[C@H](C(=O)O)[C@@H]1C[C@H]1S(=O)(=O)O
pKi [1]: 4.09
pKi [2]: 4.47
pKi [3]: < 3.52
pKi (Glutamate NMDA receptor): < 3.52
pKi [4]: < 3.52
pKi [5]: < 3.52
pKi [6]: 4.11

N[C@@H](C(=O)O)[C@H]1C[C@@H]1S(=O)(=O)O
pKi [1]: < 3.52
pKi [2]: 4.47
pKi [3]: 4.02
pKi (Glutamate NMDA receptor): 4.66
pKi [4]: < 3.52
pKi [5]: < 3.52
pKi [6]: < 3.52

N[C@H](C(=O)O)[C@H]1C[C@H]1S(=O)(=O)O
pKi [1]: < 3.52
pKi [2]: < 3.52
pKi [3]: < 3.52
pKi (Glutamate NMDA receptor): < 3.52
pKi [4]: < 3.52
pKi [5]: < 3.52
pKi [6]: < 3.52

N[C@H](C(=O)O)[C@@H]1C[C@@H]1S(=O)(=O)O
pKi [1]: < 3.52
pKi [2]: 5.48
pKi [3]: 7.00
pKi (Glutamate NMDA receptor): 4.72
pKi [4]: < 3.52
pKi [5]: < 3.52
pKi [6]: < 3.52
